15 molecules from patent US6110962A, “11-aryl-benzo[B]naphtho[2,3-D]furans and 11-aryl-benzo[B]naphtho[2,3-D]thiophenes useful in the treatment of insulin resistance and hyperglycemia” (American Home Products Corporation, priority 1999, dated 2000) can be followed below.

Where two headings read alike, the source gives them in different places.

In one assay the target is T1, Human recombinant PTP1B (Homo sapiens, UniProt P18031).
T1 construct: made in house
T1 sequence (P18031 1-435): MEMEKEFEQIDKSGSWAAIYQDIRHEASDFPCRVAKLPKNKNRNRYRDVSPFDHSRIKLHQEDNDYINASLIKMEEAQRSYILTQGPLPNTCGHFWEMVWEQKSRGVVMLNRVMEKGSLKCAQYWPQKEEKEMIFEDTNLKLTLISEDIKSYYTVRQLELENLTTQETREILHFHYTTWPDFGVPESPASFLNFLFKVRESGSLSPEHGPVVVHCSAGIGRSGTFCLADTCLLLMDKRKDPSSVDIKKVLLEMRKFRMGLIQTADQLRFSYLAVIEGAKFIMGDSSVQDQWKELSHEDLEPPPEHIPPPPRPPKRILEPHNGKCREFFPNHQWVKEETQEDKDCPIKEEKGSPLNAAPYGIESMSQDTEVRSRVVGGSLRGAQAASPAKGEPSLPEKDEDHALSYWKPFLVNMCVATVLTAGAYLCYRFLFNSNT
It is filed as biochemical.

Assay [1] has as its system rat hepatic microsomal PTPases. The note with it: PTPase activity, compound at 50 μM.

Consider `NC(=O)COc1c(Br)cc(-c2c3ccccc3c(Br)c3sc4ccccc4c23)cc1Br` [Example 165], for which the IC50 at Human recombinant PTP1B (read-out: IC50) is 665 nM. Besides, the “% Change from Control” value in assay [1] was -3.12%.
For `C[C@H](CC(=O)O)Oc1c(Br)cc(-c2c3ccccc3c(Br)c3sc4ccccc4c23)cc1Br` [Example 180], in that order: 384 nM and -50.64%.
The like results for `CC(C)(Oc1c(Br)cc(-c2c3ccccc3c(Br)c3sc4ccccc4c23)cc1Br)C(=O)O` [Example 178, 2-[2,6-Dibromo-4-(6-bromo-benzo[b]naphtho[2,3-d]thiophen-11-yl)-phenoxy]-2-methyl-propionic acid] were, in that order, 480 nM and -42.41%.
For `O=C(O)[C@H](CCc1ccccc1)Oc1c(Br)cc(-c2c3ccccc3c(Br)c3sc4ccccc4c23)cc1Br` [Example 118], in that order: 31 nM and -82.00%.
As to `N#Cc1cc(-c2c3ccccc3cc3sc4ccccc4c23)ccc1OCC(=O)O` [Example 82, [(4-benzo[b]naphtho[2,3-d]thiophen-11-yl)-2-cyano-phenoxy]-acetic acid], the IC50 at Human recombinant PTP1B (read-out: IC50) turned out to be 2000 nM. Besides, the “% Change from Control” value in assay [1] is -39.80%.
For `O=C(O)CCOc1c(Br)cc(-c2c3ccccc3c(Br)c3sc4ccccc4c23)cc1Br` [Example 179], in that order: 203 nM and -66.27%.
For `COc1c2ccccc2c(-c2cc(Br)c(O)c(Br)c2)c2c1sc1ccccc12` [Example 63], in that order: 904 nM and -47.53%.
For `NC(=O)[C@@H](Cc1ccccc1)Oc1c(Br)cc(-c2c3ccccc3c(Br)c3sc4ccccc4c23)cc1Br` [Example 166], in that order: 565 nM and -26.86%.
Turning to `Oc1c(Br)cc(-c2c3ccccc3c(I)c3sc4ccccc4c23)cc1Br` [Example 59, 2,6-Dibromo-4-(6-iodo-benzo[b]naphtho[2,3-d]thiophen-11-yl)-phenol], on Human recombinant PTP1B (read-out: IC50), the half-inhibitory concentration (IC50) is 612 nM. Besides, the “% Change from Control” value in assay [1] was -35.46%.
As to `O=P(O)(O)Oc1c(Br)cc(-c2c3ccccc3c(Br)c3sc4ccccc4c23)cc1Br` [Example 177, Phosphoric acid Mono-[2,6-dibromo-4-(6-bromo-benzo[b]naphtho[2,3-d]thiophen-11-yl)-phenyl]ester], the IC50 on Human recombinant PTP1B was 1080 nM. For the same molecule, the “% Change from Control” value in assay [1] is recorded as -69.35%.
As for `Cc1c2ccccc2c(-c2cc(Br)c(O[C@H](Cc3ccccc3)C(=O)O)c(Br)c2)c2c1sc1ccccc12` [Example 141], the IC50 at Human recombinant PTP1B (read-out: IC50) was 126 nM. The “% Change from Control” value in assay [1] is listed as -76.58%.
For `Oc1c(Br)cc(-c2c3ccccc3c(Br)c3sc4ccccc4c23)cc1Br` [Example 21, 2,6-Dibromo-4-(6-bromo-benzo[b]naphtho[2,3-d]thiophen-11-yl)-phenol], the IC50 at Human recombinant PTP1B (read-out: IC50) worked out at 384 nM. The “% Change from Control” value in assay [1] is -32.41%.
As to `Oc1c(F)ccc(-c2c3ccccc3c(Br)c3sc4ccccc4c23)c1F` [Example 200, 3-(6-Bromo-benzo[b]naphtho[2,3-d]thiophen-11-yl)-2,6 difluoro-phenol], the IC50 on Human recombinant PTP1B (read-out: IC50) turned out to be 1170 nM. Also, in assay [1], the “% Change from Control” value is listed as -50.62%.
`Oc1ccc(-c2c3ccccc3cc3sc4ccccc4c23)cc1O` [Example 18, 4-(Benzo[b]naphtho[2,3-d]thiophen-11-yl)-benzene-1,2-diol]: at Human recombinant PTP1B (read-out: IC50), the half-inhibitory concentration (IC50) is 554 nM. The “% Change from Control” value in assay [1] is on record as -15.22%.
On to `O=P(O)(O)COc1c(Br)cc(-c2c3ccccc3c(Br)c3sc4ccccc4c23)cc1Br` [Example 162, [2,6-Dibromo-4-(6-bromo-benzo[b]naphtho[2,3-d]thiophen-11-yl)-phenoxymethyl]-phosphonic acid], for which, on Human recombinant PTP1B (read-out: IC50), the IC50 came to 145 nM. For the same molecule, in assay [1], the “% Change from Control” value is -60.67%.

The IC50 is the concentration needed to halve the response being measured.
